Source: US8148541B2, “Rhodanine derivatives, a process for the preparation thereof and pharmaceutical composition containing the same” (Korea Research Institute of Bioscience and Biotechnology, priority 2006, dated 2012)
Read-outs that look alike come from different tables or passages of the source.

Legend:
Experiment in all cases: Protein phosphatase inhibition assay, FDP substrate, FMP fluorescence
Assay type in all cases: biochemical
PTP1B = target: T1, PTP1B (Homo sapiens, UniProt P18031)
T1 sequence (P18031 1-435): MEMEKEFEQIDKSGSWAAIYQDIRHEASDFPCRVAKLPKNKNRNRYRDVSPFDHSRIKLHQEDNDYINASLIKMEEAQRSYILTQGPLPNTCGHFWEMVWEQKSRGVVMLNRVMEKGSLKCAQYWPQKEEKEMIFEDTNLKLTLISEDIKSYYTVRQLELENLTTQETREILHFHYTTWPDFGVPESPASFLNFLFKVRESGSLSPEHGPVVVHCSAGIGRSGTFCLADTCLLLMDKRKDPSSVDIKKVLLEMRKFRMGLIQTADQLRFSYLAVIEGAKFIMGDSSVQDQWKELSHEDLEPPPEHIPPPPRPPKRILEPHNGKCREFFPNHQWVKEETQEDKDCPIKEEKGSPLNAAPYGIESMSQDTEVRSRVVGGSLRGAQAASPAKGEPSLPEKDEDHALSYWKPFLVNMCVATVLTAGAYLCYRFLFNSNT
Protocol: (§1) In order to examine the ability of the rhodanine derivatives, that is, Compounds 1˜174, to inhibit protein phosphatases, they were assayed for IC50 values through the following experiments.
(§2) For the experiments, FDP (fluorescein diphosphate) was used as a substrate for genetically recombinant enzymes to measure the fluorescence of FMP (fluorescein monophosphate). […]

Cdc25A = target: T2, Cdc25A (Homo sapiens, UniProt P30304); conditions: genetically recombinant enzyme, fluorescence of FMP
T2 sequence (P30304 1-524): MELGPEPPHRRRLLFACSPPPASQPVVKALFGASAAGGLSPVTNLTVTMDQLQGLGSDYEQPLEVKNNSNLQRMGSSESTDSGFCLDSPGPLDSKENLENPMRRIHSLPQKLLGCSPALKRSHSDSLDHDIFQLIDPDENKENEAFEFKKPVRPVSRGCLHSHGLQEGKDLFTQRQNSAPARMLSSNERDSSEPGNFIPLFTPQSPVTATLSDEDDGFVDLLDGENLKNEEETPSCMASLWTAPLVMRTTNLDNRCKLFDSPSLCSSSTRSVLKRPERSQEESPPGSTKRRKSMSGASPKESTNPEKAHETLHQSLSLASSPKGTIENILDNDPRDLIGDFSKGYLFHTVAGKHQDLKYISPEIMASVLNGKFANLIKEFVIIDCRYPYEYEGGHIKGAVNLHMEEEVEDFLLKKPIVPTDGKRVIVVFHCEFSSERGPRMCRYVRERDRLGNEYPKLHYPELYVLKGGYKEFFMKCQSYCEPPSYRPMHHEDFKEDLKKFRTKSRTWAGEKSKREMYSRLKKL
Protocol: as §1, §2

Cdc25B = target: T3, Cdc25B (Homo sapiens, UniProt P30305); conditions: genetically recombinant enzyme, fluorescence of FMP
T3 sequence (P30305 1-580): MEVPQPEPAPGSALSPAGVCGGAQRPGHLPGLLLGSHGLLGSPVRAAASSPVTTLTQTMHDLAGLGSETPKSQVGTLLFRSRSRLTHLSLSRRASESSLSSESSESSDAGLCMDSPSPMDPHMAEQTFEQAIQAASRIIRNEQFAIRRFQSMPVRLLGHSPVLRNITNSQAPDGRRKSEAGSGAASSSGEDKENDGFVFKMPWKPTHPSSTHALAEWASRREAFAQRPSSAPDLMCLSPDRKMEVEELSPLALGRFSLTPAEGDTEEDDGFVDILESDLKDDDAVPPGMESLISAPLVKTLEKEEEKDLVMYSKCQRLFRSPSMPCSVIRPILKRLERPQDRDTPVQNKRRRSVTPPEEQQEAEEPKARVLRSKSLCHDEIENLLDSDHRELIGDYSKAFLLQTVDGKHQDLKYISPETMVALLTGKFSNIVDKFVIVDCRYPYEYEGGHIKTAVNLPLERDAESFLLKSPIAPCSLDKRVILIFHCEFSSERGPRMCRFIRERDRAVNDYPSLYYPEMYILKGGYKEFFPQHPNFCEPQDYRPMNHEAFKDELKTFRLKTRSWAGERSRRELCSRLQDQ
Protocol: as §1, §2

Prl-3 = Prl-3 (Homo sapiens, UniProt O75365); conditions: genetically recombinant enzyme, fluorescence of FMP
Source text: For the experiments, FDP (fluorescein diphosphate) was used as a substrate for genetically recombinant enzymes to measure the fluorescence of FMP (fluorescein monophosphate).

VHR = VHR (Homo sapiens, UniProt P51452); conditions: genetically recombinant enzyme, fluorescence of FMP
Protocol: as §1, §2

CD45 = target: T4, CD45 (Homo sapiens, UniProt P08575); conditions: genetically recombinant enzyme, fluorescence of FMP
T4 sequence (P08575 26-1306): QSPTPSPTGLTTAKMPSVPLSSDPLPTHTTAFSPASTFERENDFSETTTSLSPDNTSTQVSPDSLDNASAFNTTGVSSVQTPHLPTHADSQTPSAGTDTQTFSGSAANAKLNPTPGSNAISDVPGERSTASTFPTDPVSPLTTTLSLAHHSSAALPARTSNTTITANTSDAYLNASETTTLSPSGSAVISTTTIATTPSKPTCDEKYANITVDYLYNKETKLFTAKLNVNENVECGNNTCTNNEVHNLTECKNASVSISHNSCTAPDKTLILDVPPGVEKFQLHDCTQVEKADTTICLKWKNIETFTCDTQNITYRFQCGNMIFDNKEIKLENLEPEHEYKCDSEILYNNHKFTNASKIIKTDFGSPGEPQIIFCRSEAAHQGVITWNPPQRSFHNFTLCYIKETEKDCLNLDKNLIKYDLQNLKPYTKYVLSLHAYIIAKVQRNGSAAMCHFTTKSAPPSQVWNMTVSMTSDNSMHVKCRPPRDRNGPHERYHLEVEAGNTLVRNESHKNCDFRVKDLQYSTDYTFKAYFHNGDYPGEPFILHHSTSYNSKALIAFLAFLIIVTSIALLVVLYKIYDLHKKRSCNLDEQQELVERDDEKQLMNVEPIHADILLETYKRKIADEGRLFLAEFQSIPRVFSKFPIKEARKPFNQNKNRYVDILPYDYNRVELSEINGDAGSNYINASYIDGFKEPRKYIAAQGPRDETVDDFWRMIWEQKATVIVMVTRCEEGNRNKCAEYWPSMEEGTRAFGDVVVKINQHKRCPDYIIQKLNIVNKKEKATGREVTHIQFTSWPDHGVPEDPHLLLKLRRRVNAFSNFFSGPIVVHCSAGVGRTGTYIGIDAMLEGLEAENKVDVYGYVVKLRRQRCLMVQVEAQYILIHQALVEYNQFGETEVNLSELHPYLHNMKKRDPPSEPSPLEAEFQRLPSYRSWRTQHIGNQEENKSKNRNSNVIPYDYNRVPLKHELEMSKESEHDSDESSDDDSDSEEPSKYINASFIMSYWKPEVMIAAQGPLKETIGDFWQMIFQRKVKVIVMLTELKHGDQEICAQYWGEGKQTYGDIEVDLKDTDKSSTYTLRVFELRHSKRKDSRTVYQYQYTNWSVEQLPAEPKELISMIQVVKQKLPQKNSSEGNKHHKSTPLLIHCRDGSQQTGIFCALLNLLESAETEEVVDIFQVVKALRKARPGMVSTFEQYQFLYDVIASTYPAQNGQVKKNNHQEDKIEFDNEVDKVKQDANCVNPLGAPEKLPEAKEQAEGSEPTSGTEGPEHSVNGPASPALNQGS
Protocol: as §1, §2

Cdc25C = target: T5, Cdc25C (Homo sapiens, UniProt P30307); conditions: genetically recombinant enzyme, fluorescence of FMP
T5 sequence (P30307 1-473): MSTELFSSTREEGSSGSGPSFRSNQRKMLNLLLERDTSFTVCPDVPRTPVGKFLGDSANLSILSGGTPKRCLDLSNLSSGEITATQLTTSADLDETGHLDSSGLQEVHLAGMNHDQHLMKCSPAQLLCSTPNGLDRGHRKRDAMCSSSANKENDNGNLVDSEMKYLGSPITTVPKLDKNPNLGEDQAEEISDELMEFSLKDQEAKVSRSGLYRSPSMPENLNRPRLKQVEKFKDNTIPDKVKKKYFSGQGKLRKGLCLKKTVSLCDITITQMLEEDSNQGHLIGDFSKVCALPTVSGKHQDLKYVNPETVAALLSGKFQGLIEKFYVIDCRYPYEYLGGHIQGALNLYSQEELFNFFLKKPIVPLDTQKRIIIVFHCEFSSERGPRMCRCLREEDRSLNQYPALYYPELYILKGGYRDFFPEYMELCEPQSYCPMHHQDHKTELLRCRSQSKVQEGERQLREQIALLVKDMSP
Protocol: as §1, §2

LAR = LAR (Homo sapiens, UniProt P10586); conditions: genetically recombinant enzyme, fluorescence of FMP
Protocol: as §1, §2

pp2A = conditions: genetically recombinant enzyme, fluorescence of FMP
Protocol: as §1, §2

PP1 = conditions: genetically recombinant enzyme, fluorescence of FMP
Protocol: as §1, §2

Yop = Yop (Yersinia enterocolitica, UniProt P15273); conditions: genetically recombinant enzyme, fluorescence of FMP
Protocol: as §1, §2

[1] = genetically recombinant enzyme, FDP substrate, fluorescence of FMP, read-out: IC50 PTP1B

Chain of Prl-3 (O75365 whole entry): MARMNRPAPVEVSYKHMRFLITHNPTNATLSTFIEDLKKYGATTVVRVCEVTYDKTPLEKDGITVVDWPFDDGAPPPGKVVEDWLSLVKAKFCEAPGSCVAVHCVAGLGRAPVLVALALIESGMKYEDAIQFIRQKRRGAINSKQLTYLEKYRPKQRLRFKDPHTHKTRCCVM
Chain of VHR (P51452 whole entry): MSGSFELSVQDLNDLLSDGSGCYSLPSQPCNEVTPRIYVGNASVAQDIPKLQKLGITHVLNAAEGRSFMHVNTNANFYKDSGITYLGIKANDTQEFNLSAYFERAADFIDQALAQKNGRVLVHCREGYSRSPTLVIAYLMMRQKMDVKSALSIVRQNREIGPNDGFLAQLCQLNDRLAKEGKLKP
Chain of LAR (P10586 30-1907): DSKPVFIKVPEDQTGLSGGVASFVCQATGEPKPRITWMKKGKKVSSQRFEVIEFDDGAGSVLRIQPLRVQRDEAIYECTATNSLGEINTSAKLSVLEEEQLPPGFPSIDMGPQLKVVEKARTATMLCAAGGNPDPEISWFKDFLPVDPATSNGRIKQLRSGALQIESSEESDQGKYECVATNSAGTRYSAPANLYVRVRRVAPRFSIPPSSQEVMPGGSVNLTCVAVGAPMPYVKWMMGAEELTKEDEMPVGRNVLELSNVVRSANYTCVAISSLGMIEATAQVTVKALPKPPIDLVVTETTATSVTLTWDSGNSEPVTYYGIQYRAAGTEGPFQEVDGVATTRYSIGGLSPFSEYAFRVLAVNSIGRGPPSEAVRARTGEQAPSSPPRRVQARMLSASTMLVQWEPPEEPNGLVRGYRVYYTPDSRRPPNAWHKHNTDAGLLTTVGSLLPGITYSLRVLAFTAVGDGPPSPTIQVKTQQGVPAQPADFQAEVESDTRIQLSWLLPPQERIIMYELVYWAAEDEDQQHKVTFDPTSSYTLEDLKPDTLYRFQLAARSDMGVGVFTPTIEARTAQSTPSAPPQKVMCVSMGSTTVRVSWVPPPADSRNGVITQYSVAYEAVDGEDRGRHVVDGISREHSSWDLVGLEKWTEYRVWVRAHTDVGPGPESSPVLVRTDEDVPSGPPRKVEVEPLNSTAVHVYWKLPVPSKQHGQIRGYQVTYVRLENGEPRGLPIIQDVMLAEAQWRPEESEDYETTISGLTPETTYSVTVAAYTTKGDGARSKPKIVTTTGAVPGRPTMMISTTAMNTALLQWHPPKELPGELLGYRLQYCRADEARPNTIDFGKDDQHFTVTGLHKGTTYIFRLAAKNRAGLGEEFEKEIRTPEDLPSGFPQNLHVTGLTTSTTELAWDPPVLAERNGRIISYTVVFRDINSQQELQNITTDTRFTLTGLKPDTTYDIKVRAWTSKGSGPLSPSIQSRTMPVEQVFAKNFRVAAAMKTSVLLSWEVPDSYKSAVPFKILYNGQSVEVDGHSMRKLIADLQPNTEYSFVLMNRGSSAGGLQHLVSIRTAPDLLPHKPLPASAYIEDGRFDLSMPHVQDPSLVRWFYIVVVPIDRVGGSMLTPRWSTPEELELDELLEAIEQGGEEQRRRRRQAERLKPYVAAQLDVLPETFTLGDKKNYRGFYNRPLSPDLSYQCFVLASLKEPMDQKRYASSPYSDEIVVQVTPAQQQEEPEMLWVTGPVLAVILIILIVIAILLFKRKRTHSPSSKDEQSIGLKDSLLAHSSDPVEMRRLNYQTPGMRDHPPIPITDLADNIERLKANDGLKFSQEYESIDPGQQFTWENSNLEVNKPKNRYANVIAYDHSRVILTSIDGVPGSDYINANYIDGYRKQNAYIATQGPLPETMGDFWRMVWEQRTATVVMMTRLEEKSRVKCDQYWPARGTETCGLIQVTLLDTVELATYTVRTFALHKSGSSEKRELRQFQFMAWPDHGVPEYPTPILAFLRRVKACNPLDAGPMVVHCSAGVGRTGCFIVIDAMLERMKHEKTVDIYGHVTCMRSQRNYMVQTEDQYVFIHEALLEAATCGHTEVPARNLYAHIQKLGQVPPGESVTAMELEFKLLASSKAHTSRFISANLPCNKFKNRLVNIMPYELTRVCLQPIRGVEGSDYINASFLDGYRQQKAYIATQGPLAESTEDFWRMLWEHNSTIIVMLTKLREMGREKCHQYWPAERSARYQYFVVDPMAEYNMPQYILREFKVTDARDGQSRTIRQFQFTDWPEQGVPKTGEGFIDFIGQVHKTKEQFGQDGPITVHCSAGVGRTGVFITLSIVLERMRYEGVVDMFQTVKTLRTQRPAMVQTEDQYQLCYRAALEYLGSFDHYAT
Chain of Yop (P15273 whole entry): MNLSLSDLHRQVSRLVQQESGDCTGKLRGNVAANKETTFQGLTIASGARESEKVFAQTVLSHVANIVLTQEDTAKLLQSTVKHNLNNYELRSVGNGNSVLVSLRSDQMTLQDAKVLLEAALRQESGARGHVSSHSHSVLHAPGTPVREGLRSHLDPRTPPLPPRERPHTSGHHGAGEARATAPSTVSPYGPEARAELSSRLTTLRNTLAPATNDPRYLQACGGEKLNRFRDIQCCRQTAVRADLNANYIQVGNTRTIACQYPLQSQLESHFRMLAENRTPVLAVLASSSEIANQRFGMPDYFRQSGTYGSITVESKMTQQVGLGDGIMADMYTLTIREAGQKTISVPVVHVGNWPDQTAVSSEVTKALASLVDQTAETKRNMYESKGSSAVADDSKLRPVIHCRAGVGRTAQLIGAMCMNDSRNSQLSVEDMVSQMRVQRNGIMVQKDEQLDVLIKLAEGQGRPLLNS

Compound	IC50 (PTP1B; [1])	IC50 (Prl-3)	IC50 (Cdc25C)	also measured
O=C1NC(=S)S/C1=C\c1cc(Br)ccc1OCCn1c2ccccc2c2ccccc21 [Compound 141, 5-[5-bromo-2-(2-carbazol-9-yl-ethoxy)-benzylidene]-2-thioxo-thiazolidin-4-one]	47 µM	1.6 µM		IC50 (Cdc25A): > 20 µM; IC50 (Cdc25B): 2.7 µM
O=C1NC(=S)S/C1=C\c1cc(Br)ccc1OCc1cccc(C(F)(F)F)c1 [Compound 19, 5-[5-bromo-2-(3-trifluoromethyl-benzyloxy)-benzylidene]-2-thioxo-thiazolidin-4-one]	5 µM		> 20 µM	IC50 (VHR): > 20 µM; IC50 (CD45): > 20 µM
CCN(CC)c1ccc(/C=C2\SC(=S)NC2=O)c(OCc2ccccc2)c1 [Compound 32, 5-(2-benzyloxy-4-diethylamino-benzylidene)-2-thioxo-thiazolidin-4-one]	> 20 µM	1.34 µM	> 20 µM	IC50 (VHR): > 20 µM; IC50 (LAR): > 20 µM
O=C1NC(=S)S/C1=C\c1cc(Br)ccc1OCCc1ccccc1 [Compound 4, 5-(5-bromo-2-phenethyloxy-benzylidene)-2-thioxo-thiazolidin-4-one]	10 µM			IC50 (pp2A): > 20 µM; IC50 (PP1): > 20 µM
CN(CCOc1ccc(Br)cc1/C=C1\SC(=S)NC1=O)C(=O)OC(C)(C)C [Compound 157, 2-[4-bromo-2-(4-oxo-2-thioxo-thiazolidin-5-ylidenemethyl)-phenoxy]-ethyl-methyl-carbamic acid t-butyl ester]	> 20 µM	6.2 µM		IC50 (LAR): > 20 µM; IC50 (Yop): > 20 µM
O=C1NC(=S)S/C1=C\c1cc(Br)ccc1OCc1ccc(-c2ccccc2)cc1 [Compound 18, 5-[2-(biphenyl-ylmethoxy)-5-bromo-benzylidene]-2-thioxo-thiazolidin-4-one]	2.1 µM			IC50 (CD45): > 20 µM
O=C1NC(=S)S/C1=C\c1cc(Br)ccc1OCc1ccccc1 [Compound 1, 5-(2-benzyloxy-5-bromobenzylidene)-2-thioxo-thiazolidin-4-one]				IC50 (PTP1B): > 20 µM
O=C1NC(=S)S/C1=C\c1cc2ccccc2cc1OCc1ccccc1 [Compound 2, 5-(3-benzyloxy-naphthalen-2-ylmethylene)-2-thioxo-thiazolidin-4-one]	> 20 µM		> 20 µM	IC50 (PP1): > 20 µM
O=C1NC(=S)S/C1=C\c1cc(Br)ccc1OCCN1c2ccccc2Cc2ccccc21 [Compound 142, 5-2-[2-(9H-acridin-10-yl)-ethoxy]-5-bromo-benzylidene-2-thioxo-thiazolidin-4-one]	13 µM	3.6 µM	> 20 µM	IC50 (Cdc25B): 4.4 µM
